Patent publication US7910568B2, “Derivatives of 4- or 5-aminosalicylic acid” (Antibe Therapeutics Inc., priority 2005, dated 2011)

Experiments:
COX-1 mRNA = assay: TNBS-induced colitis in mice, colonic COX-1 mRNA by RT-PCR; format: in vivo; details: dose equimolar to 50 mg/kg mesalamine; FIG. 13
Experimental: The same model was used as described above. In this example, the effects of mesalamine (50 mg/kg) were compared to those of equimolar doses of Compound XXXV. In addition to measuring the severity of colitis by measuring disease activity score and MPO activity, tissues were processed for measurement of a number of genes for inflammatory cytokines and other mediators.
In particular, mRNA expression in mice of tumour necrosis factor-alpha (TNF-α), interferon gamma (IFN-γ), colonic interleukin (IL)-1, IL-2, IL-10, IL-12 p40, RANTES, cyclooxygenase (COX)-1, COX-2, constitutive endothelial nitric oxide synthase (eNOS), and inducible NOS (iNOS) was measured as described in Wallace et al. (1999) Gastroenterology 117: 557-566, incorporated herein by reference.
Briefly, reverse transcription-polymerase chain reaction (RT-PCR) was used to detect and quantify mRNA of the particular cytokine/chemokine/enzyme. Glyceraldehyde-3-phosphate dehydrogenase (GAPDH) was used as the “housekeeping gene” for mRNA expression (i.e., as an internal control). For each sample, the ratio of the amplification of the target gene to the amplification of GAPDH (expression of each is measured by performing densitometry on gels) was obtained. […]

[1] = test system: visceral pain perception in response to colorectal distension; assay: Rat model of visceral pain perception, colorectal distension, abdominal withdrawal reflex score; format: in vivo
Experimental: A rat model of visceral pain perception, a pre-clinical model of irritable bowel syndrome, was used in the following example. Rats (male, Wistar, 200-250 g, obtained from Charles River, Monza, Italy), were housed in plastic cages and maintained under controlled conditions with 12-hours light/dark cycle with lights on at 7.00 AM. Tap water and standard laboratory chow were freely available. Before experiments, rats were individually trained by spending 2-3 hours per day in a plexiglass cage for 2-3 days. It allowed them to adjust to a movement-restriction environment. Food was withheld for 12 hours before colorectal distension (CRD) recording were performed. Experiments were performed in awake rats and were conducted in a blind manner in that the observer was not aware of the identity of drug administered to each animal.
In the testing day, rats were sedated with ether inhalation and a 2 cm long latex balloon was inserted intrarectally 2 cm from the anal verge and fixed at the base of the tail. The balloon was connected via a double-barreled cannula to a pressure transducer to continuously monitoring the rectal pressure by a computer (PowerLab PC, A.D. Instruments, Milford, Mass., USA) and to a syringe for inflation/deflation of the balloon. The rats were then housed in a small cage (20×8×8 cm) on an elevated Plexiglas™ platform and allowed to wake up and adapt for 1 hour. After recovery from sedation, animals underwent the CRD procedure and behavioral responses were tested. The night before the experiments, the balloons were inflated and left overnight so the latex stretched and the balloons became compliant.
CRD of 20 seconds, performed every 5 minutes, was applied in increment of 0.4 ml starting from 0.4 ml up to 1.6 ml water. To achieve an accurate measurement of the colonic parameters and perception, the distensions were repeated twice for each intensity and data for each animal were averaged for analysis. Each animal underwent a double set of CRD. Twenty minutes after the first sequence of CRD (0.4 mL-1.6 ml water), drugs were administered intraperitoneally (i.p.) and a second set of CRD was performed. Behavioral responses during the first and the second set of CRD were assessed and compared.
Behavioral response to CRD was assessed by measuring the abdominal withdrawal reflex (AWR) using a semiquantitative score (1).
The effects of mesalamine and Compound XXXV on colonic compliance and sensitivity were determined using a total of 8 fasting rats. To investigate whether the administration of mesalamine and Compound XXXV could revert pain induced by CRD, after the first sequence of CRD, […], after which a second set of CRD was repeated.
All data are presented as the mean±SEM, with sample sizes of 4 rats/group; statistical comparison of paired data was performed by the Wilcoxon signed rank test. An associated probability (p value) of less that 5% was considered significant.

[2] = test system: leukocyte adherence to the vascular endothelium; assay: Aspirin-induced leukocyte adherence to the vascular endothelium, intravital microscopy of mesenteric venules; format: in vivo, rat
Experimental: Leukocyte adherence was studied using intravital microscopy, as described in detail previously (Wallace et al., (1993) Am. J. Physiol. 265: 993-998, incorporated hereto by reference). Rats were anesthetized with pentobarbital sodium (60 mg/kg i.p.) and cautery incisions were made along the abdominal region. A tracheotomy was performed to facilitate breathing. The rats were placed in a supine position, and a segment of the mesentery was exteriorized through the abdominal incision. The mesentery was carefully placed over an optically clear viewing pedestal that allowed for trans-illumination of a 2-cm^2 segment of tissue. All exposed tissue was covered with saline-soaked gauze to minimize dehydration. The temperature of the pedestal was kept at 37° C. and the mesentery was superfused with warmed bicarbonate-buffered saline (pH 7.4). An intravital microscope (Nikon L25/0.35) and a ×10 eyepiece were used to observe the mesenteric microcirculation. Post-capillary venules with diameters ranging from 20 to 40 μm were selected for the study. A video camera mounted on the microscope (Panasonic™ digital 5000) projected the image onto a monitor, and the images were recorded for playback analysis using a videocassette recorder. Images of the mesenteric microcirculation were recorded 5 minutes prior to aspirin administration (baseline), at the time of aspirin administration (time 0-5) and every 15 minutes for 60 minutes. Leukocyte adherence was blindly quantified from videotaped images of the vessels made over 5-min periods as the number of leukocytes that remained stationary along the vessel wall for 30 s or more (expressed per 100 μm venule length). Groups of rats (at least 5 in each) were pretreated with Compound XXXV (130 mg/kg), Compound XXVII (100 mg/kg), mesalamine (50 mg/kg), or vehicle 60 min prior to aspirin (or vehicle) administration. These drugs were given intragastrically. In some experiments, rats were treated with glibenclamide (10 mg/kg i.p.) or vehicle 30 min prior to administration of these compounds.

SMILES: Nc1ccc(O)c(C(=O)Oc2ccc(-c3cc(=S)ss3)cc2)c1 [Compound XXXV, 5-Amino-2-hydroxy-benzoic acid 4-(5-thioxo-5H-[1,2]dithiol-3-yl)-phenyl ester]
- COX-1 mRNA expression (COX-1 mRNA): suppressed
- Perception score (visceral pain in response to colorectal distension) ([1]; 100 mg/kg i.p., second set of CRD 0.4-1.6 ml, FIG. 15): more effective than mesalamine (and vehicle) in reducing visceral pain
- Pain perception score after glibenclamide pretreatment ([1]; 0.8 mL colorectal distention, 100 mg/kg, glibenclamide 10 mg/kg i.p. 30 min before, FIG. 17): reversed by pretreatment with glibenclamide
- Pain perception score ([1]; 0.8 mL colorectal distention, 100 mg/kg, FIG. 17): significantly reduced the pain perception
- Pain perception score ([1]; equimolar doses: mesalamine 50 mg/kg, Compound XXXV 130 mg/kg, ADT-OH 80 mg/kg, Compound XXVII 100 mg/kg, 4-HTB 50 mg/kg, vs vehicle): significantly reduced pain perception
- Aspirin-induced leukocyte adherence after glibenclamide pretreatment ([2]; glibenclamide 10 mg/kg i.p. 30 min prior to the compound, FIG. 19): reversed the inhibitory effect
- Aspirin-induced leukocyte adherence ([2]; intragastric pretreatment 60 min prior to aspirin (XXXV 130 mg/kg, mesalamine 50 mg/kg), glibenclamide 10 mg/kg i.p., FIG. 19): prevented the aspirin-induced increase in leukocyte adherence
- Aspirin-induced leukocyte adherence, final time period ([2]; minutes 60-65, XXXV 130 mg/kg, XXVII 100 mg/kg intragastric, FIG. 20): suppress aspirin-induced leukocyte adherence
- Aspirin-induced leukocyte adherence, final time period, after glibenclamide pretreatment ([2]; minutes 60-65, glibenclamide 10 mg/kg i.p., FIG. 20): reverse this inhibitor effect
